# Assay results taken from PubChem BioAssay (NCI).
#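 48-hour exposure; five concentrations; linearly interpolated endpoints. TGI is the concentration that stops growth completely.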
# Tests used:
# Assay in all cases: growth of human tumour cells (NCI), 48 h
# NCI-H23 lung = system: NCI-H23 lung
# LXFL 529 NSCLC = system: LXFL 529 NSCLC
# ACHN renal = system: ACHN renal
# MALME-3M melanoma = system: MALME-3M melanoma
# SK-MEL-2 melanoma = system: SK-MEL-2 melanoma
# OVCAR-4 ovarian = system: OVCAR-4 ovarian
# HL-60(TB) leukemia = system: HL-60(TB) leukemia
# RPMI-8226 leukemia = system: RPMI-8226 leukemia
# SNB-19 CNS = system: SNB-19 CNS
# 786-0 renal = system: 786-0 renal
# NCI-H460 lung = system: NCI-H460 lung
# COLO 205 colon = system: COLO 205 colon
# SK-MEL-28 melanoma = system: SK-MEL-28 melanoma
# M19-MEL melanoma = system: M19-MEL melanoma
# EKVX NSCLC = system: EKVX NSCLC
# SK-OV-3 ovarian = system: SK-OV-3 ovarian
# HT29 colon = system: HT29 colon
# A549 NSCLC = system: A549 NSCLC
# OVCAR-5 ovarian = system: OVCAR-5 ovarian
# OVCAR-8 ovarian = system: OVCAR-8 ovarian
# HCC-2998 colon = system: HCC-2998 colon
# NCI-H522 lung = system: NCI-H522 lung
# SF-295 CNS = system: SF-295 CNS
# HOP-62 NSCLC = system: HOP-62 NSCLC
# RXF-631 renal = system: RXF-631 renal
# SF-268 CNS = system: SF-268 CNS
# KM12 colon = system: KM12 colon
# SW-620 colon = system: SW-620 colon
# SK-MEL-5 melanoma = system: SK-MEL-5 melanoma
# CAKI-1 renal = system: CAKI-1 renal
# RXF 393 renal = system: RXF 393 renal
# HOP-92 NSCLC = system: HOP-92 NSCLC
# DLD-1 colon = system: DLD-1 colon
# IGROV1 ovarian = system: IGROV1 ovarian
# LOX IMVI melanoma = system: LOX IMVI melanoma
# U251 CNS = system: U251 CNS
# SNB-75 CNS = system: SNB-75 CNS
# CCRF-CEM leukemia = system: CCRF-CEM leukemia
# DMS 114 small cell lung = system: DMS 114 small cell lung
# A498 renal = system: A498 renal
# K-562 leukemia = system: K-562 leukemia
# SF-539 CNS = system: SF-539 CNS
# NCI-H226 lung = system: NCI-H226 lung
# M14 melanoma = system: M14 melanoma
# SN12C renal = system: SN12C renal
# UACC-257 melanoma = system: UACC-257 melanoma
# UO-31 renal = system: UO-31 renal
# MOLT-4 leukemia = system: MOLT-4 leukemia
# OVCAR-3 ovarian = system: OVCAR-3 ovarian
# KM20L2 colon = system: KM20L2 colon
# SNB-78 CNS = system: SNB-78 CNS
# TK-10 renal = system: TK-10 renal
smiles,measurement,setting,value
CCc1ccccc1NC(=O)C1=C(C)NC(C)=C(C(=O)Nc2ccccc2CC)C1c1cccc([N+](=O)[O-])c1,TGI,NCI-H23 lung,> 100 µM
same,TGI,LXFL 529 NSCLC,> 100 µM
same,TGI,ACHN renal,> 100 µM
same,TGI,MALME-3M melanoma,> 100 µM
same,TGI,SK-MEL-2 melanoma,> 100 µM
same,TGI,OVCAR-4 ovarian,> 100 µM
same,TGI,HL-60(TB) leukemia,88.7 µM
same,TGI,RPMI-8226 leukemia,> 100 µM
same,TGI,SNB-19 CNS,> 100 µM
same,TGI,786-0 renal,> 100 µM
same,TGI,NCI-H460 lung,> 100 µM
same,TGI,COLO 205 colon,> 100 µM
same,TGI,SK-MEL-28 melanoma,> 100 µM
same,TGI,M19-MEL melanoma,> 100 µM
same,TGI,EKVX NSCLC,> 100 µM
same,TGI,SK-OV-3 ovarian,> 100 µM
same,TGI,HT29 colon,> 100 µM
same,TGI,A549 NSCLC,> 100 µM
same,TGI,OVCAR-5 ovarian,> 100 µM
same,TGI,OVCAR-8 ovarian,> 100 µM
same,TGI,HCC-2998 colon,62 µM
same,TGI,NCI-H522 lung,97.8 µM
same,TGI,SF-295 CNS,> 100 µM
same,TGI,HOP-62 NSCLC,> 100 µM
same,TGI,RXF-631 renal,> 100 µM
same,TGI,SF-268 CNS,> 100 µM
same,TGI,KM12 colon,> 100 µM
same,TGI,SW-620 colon,> 100 µM
same,TGI,SK-MEL-5 melanoma,> 100 µM
same,TGI,CAKI-1 renal,> 100 µM
same,TGI,RXF 393 renal,> 100 µM
same,TGI,HOP-92 NSCLC,62.8 µM
same,TGI,DLD-1 colon,> 100 µM
same,TGI,IGROV1 ovarian,> 100 µM
same,TGI,LOX IMVI melanoma,> 100 µM
same,TGI,U251 CNS,> 100 µM
same,TGI,SNB-75 CNS,> 100 µM
same,TGI,CCRF-CEM leukemia,> 100 µM
same,TGI,DMS 114 small cell lung,> 100 µM
same,TGI,A498 renal,93.8 µM
same,TGI,K-562 leukemia,> 100 µM
same,TGI,SF-539 CNS,> 100 µM
same,TGI,NCI-H226 lung,> 100 µM
same,TGI,M14 melanoma,> 100 µM
same,TGI,SN12C renal,> 100 µM
same,TGI,UACC-257 melanoma,> 100 µM
same,TGI,UO-31 renal,> 100 µM
same,TGI,MOLT-4 leukemia,> 100 µM
same,TGI,OVCAR-3 ovarian,> 100 µM
same,TGI,KM20L2 colon,> 100 µM
same,TGI,SNB-78 CNS,> 100 µM
same,TGI,TK-10 renal,> 100 µM
